Laboratory results from ChEMBL document CHEMBL3885881, “DrugMatrix”.

Species on record: Rattus norvegicus
Test: DrugMatrix - Regimen: Daily Repeat
Assay type: toxicity, organism-based, Sprague-Dawley
Design: regimen Daily Repeat, gender Male, age 6-8 weeks
Details: in vivo, po, route oral GAVAGE, vehicle 100 % WATER; for TOTAL BILIRUBIN / TOTAL PROTEIN / URIC ACID / ALANINE AMINOTRANSFERASE / ALBUMIN / ALKALINE PHOSPHATASE / ASPARTATE AMINOTRANSFERASE / BLOOD UREA NITROGEN / CARBON DIOXIDE / CHLORIDE / CHOLESTEROL / CREATINE PHOSPHOKINASE / CREATININE / GLUCOSE / LACTATE DEHYDROGENASE / LIPASE / PHOSPHORUS / POTASSIUM / SODIUM: tissue Plasma; for ABSOLUTE BASOPHIL / ABSOLUTE EOSINOPHIL / ABSOLUTE LYMPHOCYTE / ABSOLUTE MONOCYTE / ABSOLUTE SEGMENTED NEUTROPHIL / BASOPHIL / EOSINOPHIL / ERYTHROCYTE COUNT / HEMATOCRIT / LEUKOCYTE COUNT / LYMPHOCYTE / MEAN CORPUSCULAR VOLUME / MONOCYTE / NEUTROPHIL / NUCLEATED RED BLOOD CELLS / PLATELET COUNT: tissue Blood
[1] = 8 mg/kg, 120 h, dose level Low, time 5 day
[2] = 78 mg/kg, 72 h, dose level High, time 3 day
[3] = 78 mg/kg, 120 h, dose level High, time 5 day

Question: For NNc1ccccc1 [PHENYLHYDRAZINE], which “TOTAL BILIRUBIN” value [1] is on record?
Answer: The value was 0.17 mg/dL.

Question: What about the “TOTAL PROTEIN” value [1] of the same compound?
Answer: The value was 5.83 G/DL.

Question: And the “URIC ACID” value [1]?
Answer: Its value is 1.23 mg/dL.

Question: And the “ABSOLUTE BASOPHIL” value [2]?
Answer: Its value is 0 CELLS/uL.

Question: What about the “ABSOLUTE EOSINOPHIL” value [2] of the same compound?
Answer: The value was 0 CELLS/uL.

Question: What about the “ABSOLUTE LYMPHOCYTE” value [2] of the same compound?
Answer: Its value is 24784.33 CELLS/uL.

Question: What about the “ABSOLUTE MONOCYTE” value [2] of the same compound?
Answer: The value was 97 CELLS/uL.

Question: What about the “ABSOLUTE SEGMENTED NEUTROPHIL” value [2] of the same compound?
Answer: Its value is 9152 CELLS/uL.

Question: And the BASOPHIL [2]?
Answer: Its BASOPHIL is 0%.

Question: And the EOSINOPHIL [2]?
Answer: Its EOSINOPHIL is 0%.

Question: What about the “ERYTHROCYTE COUNT” value [2] of the same compound?
Answer: Its value is 3.43 x10E6/uL.

Question: And the HEMATOCRIT [2]?
Answer: Its HEMATOCRIT is 24.43%.

Question: And the “LEUKOCYTE COUNT” value [2]?
Answer: Its value is 34.03 x10E3/uL.

Question: And the LYMPHOCYTE [2]?
Answer: Its LYMPHOCYTE is 73%.

Question: What about the “MEAN CORPUSCULAR VOLUME” value [2] of the same compound?
Answer: The value was 71.33 fL.

Question: And the MONOCYTE [2]?
Answer: The MONOCYTE was 0.33%.

Question: And the NEUTROPHIL [2]?
Answer: Its NEUTROPHIL is 26.67%.

Question: What about the “NUCLEATED RED BLOOD CELLS” value [2] of the same compound?
Answer: Its value is 21.67 /100WBC.

Question: And the “PLATELET COUNT” value [2]?
Answer: The value was 1624.67 x10E3/uL.

Question: What about the “ALANINE AMINOTRANSFERASE” value [2] of the same compound?
Answer: The value was 46 u/L.

Question: And the ALBUMIN [2]?
Answer: The ALBUMIN was 4.27 G/DL.

Question: What about the “ALKALINE PHOSPHATASE” value [2] of the same compound?
Answer: The value was 266 u/L.

Question: And the “ASPARTATE AMINOTRANSFERASE” value [2]?
Answer: Its value is 107.67 u/L.

Question: What about the “BLOOD UREA NITROGEN” value [2] of the same compound?
Answer: Its value is 15 mg/dL.

Question: What about the “CARBON DIOXIDE” value [2] of the same compound?
Answer: The value was 23.67 mmol/L.

Question: What about the CHLORIDE [2] of the same compound?
Answer: The CHLORIDE was 102.33 MEQ/L.

Question: And the CHOLESTEROL [2]?
Answer: The CHOLESTEROL was 53.33 mg/dL.

Question: And the “CREATINE PHOSPHOKINASE” value [2]?
Answer: Its value is 217.33 u/L.

Question: And the CREATININE [2]?
Answer: The CREATININE was 0.11 mg/dL.

Question: What about the GLUCOSE [2] of the same compound?
Answer: The GLUCOSE was 182.33 mg/dL.

Question: What about the “LACTATE DEHYDROGENASE” value [2] of the same compound?
Answer: The value was 512.67 u/L.

Question: What about the LIPASE [2] of the same compound?
Answer: Its LIPASE is 9.33 u/L.

Question: What about the PHOSPHORUS [2] of the same compound?
Answer: Its PHOSPHORUS is 12.13 mg/dL.

Question: And the POTASSIUM [2]?
Answer: Its POTASSIUM is 7.33 MEQ/L.

Question: What about the SODIUM [2] of the same compound?
Answer: Its SODIUM is 141.1 MEQ/L.

Question: What about the “TOTAL BILIRUBIN” value [2] of the same compound?
Answer: The value was 0.9 mg/dL.

Question: And the “TOTAL PROTEIN” value [2]?
Answer: Its value is 5.7 G/DL.

Question: And the “URIC ACID” value [2]?
Answer: The value was 2 mg/dL.

Question: And the “ABSOLUTE BASOPHIL” value [3]?
Answer: Its value is 0 CELLS/uL.

Question: What about the “ABSOLUTE EOSINOPHIL” value [3] of the same compound?
Answer: The value was 0 CELLS/uL.

Question: And the “ABSOLUTE LYMPHOCYTE” value [3]?
Answer: The value was 25256 CELLS/uL.

Question: What about the “ABSOLUTE MONOCYTE” value [3] of the same compound?
Answer: Its value is 656 CELLS/uL.

Question: What about the “ABSOLUTE SEGMENTED NEUTROPHIL” value [3] of the same compound?
Answer: The value was 6888 CELLS/uL.

Question: And the BASOPHIL [3]?
Answer: Its BASOPHIL is 0%.

Question: And the EOSINOPHIL [3]?
Answer: Its EOSINOPHIL is 0%.

Question: And the “ERYTHROCYTE COUNT” value [3]?
Answer: The value was 2.84 x10E6/uL.

Question: What about the HEMATOCRIT [3] of the same compound?
Answer: Its HEMATOCRIT is 25.3%.

Question: What about the “LEUKOCYTE COUNT” value [3] of the same compound?
Answer: The value was 32.8 x10E3/uL.

Question: What about the LYMPHOCYTE [3] of the same compound?
Answer: Its LYMPHOCYTE is 77%.

Question: What about the “MEAN CORPUSCULAR VOLUME” value [3] of the same compound?
Answer: Its value is 89.1 fL.

Question: What about the MONOCYTE [3] of the same compound?
Answer: Its MONOCYTE is 2%.

Question: What about the NEUTROPHIL [3] of the same compound?
Answer: The NEUTROPHIL was 21%.

Question: What about the “NUCLEATED RED BLOOD CELLS” value [3] of the same compound?
Answer: Its value is 31 /100WBC.

Question: What about the “PLATELET COUNT” value [3] of the same compound?
Answer: The value was 1632 x10E3/uL.

Question: What about the “ALANINE AMINOTRANSFERASE” value [3] of the same compound?
Answer: Its value is 84 u/L.

Question: And the ALBUMIN [3]?
Answer: The ALBUMIN was 4.8 G/DL.

Question: And the “ALKALINE PHOSPHATASE” value [3]?
Answer: Its value is 311 u/L.

Question: What about the “ASPARTATE AMINOTRANSFERASE” value [3] of the same compound?
Answer: The value was 313 u/L.

Question: And the “BLOOD UREA NITROGEN” value [3]?
Answer: The value was 28 mg/dL.

Question: What about the “CARBON DIOXIDE” value [3] of the same compound?
Answer: Its value is 17 mmol/L.

Question: What about the CHLORIDE [3] of the same compound?
Answer: The CHLORIDE was 106 MEQ/L.

Question: What about the CHOLESTEROL [3] of the same compound?
Answer: The CHOLESTEROL was 81 mg/dL.

Question: And the “CREATINE PHOSPHOKINASE” value [3]?
Answer: Its value is 196 u/L.

Question: And the CREATININE [3]?
Answer: Its CREATININE is 0.1 mg/dL.

Question: And the GLUCOSE [3]?
Answer: The GLUCOSE was 129 mg/dL.

Question: What about the “LACTATE DEHYDROGENASE” value [3] of the same compound?
Answer: The value was 1486 u/L.

Question: And the LIPASE [3]?
Answer: Its LIPASE is 10 u/L.

Question: And the PHOSPHORUS [3]?
Answer: The PHOSPHORUS was 11.1 mg/dL.

Question: What about the POTASSIUM [3] of the same compound?
Answer: Its POTASSIUM is 6.59 MEQ/L.

Question: And the SODIUM [3]?
Answer: Its SODIUM is 143.3 MEQ/L.

Question: And the “TOTAL BILIRUBIN” value [3]?
Answer: Its value is 2.2 mg/dL.

Question: What about the “TOTAL PROTEIN” value [3] of the same compound?
Answer: The value was 6.2 G/DL.

Question: What about the “URIC ACID” value [3] of the same compound?
Answer: Its value is 2 mg/dL.
